Data on 1 compound can be found in patent publication US8809314B1, “Cephalosporin compound” (Cubist Pharmaceuticals, Inc., priority 2012, dated 2014).

The term MIC denotes the smallest concentration in the dilution series that meets the test's criterion for growth inhibition.

Molecules are shown by their SMILES. Values after ≈ are worked out from the molar mass of the structure shown. Values joined by “and” are separate entries in the source; they are usually repeats but may differ in a detail not shown here. Equal entries are not always repeated. Some results are limits rather than exact numbers.

In assay [1] the test system is Klebsiella pneumoniae #573. Description: Mouse septicemia (systemic infection), PD50. Type of assay: in vivo. The following applies: Kpn #573; CD-1 mice, IP inoculum, 2 SC doses at 1 and 6 hrs, 7 day survival. As for the experimental part: (§1) In vivo efficacy of (I) was evaluated against strains of MRSA, and ceftazidime-resistant Pa and Klebsiella pneumonia (Kpn) in mouse septicemia, thigh and lung infections. Septicemia: CD-1 mice received lethal bacterial inocula IP, followed by 2 doses of antibiotics SC at 1 and 6 hrs post-inoculation. Dose calculated to protect 50% of the mice (PD50) was derived based on probit analysis of percentage survival. Thigh and lung infections: Thighs or lungs of neutropenic mice were inoculated with MRSA or Pa. Two treatment doses were given SC at 1 and 6 hrs post-inoculation. Tissues were harvested at ˜24 hrs post-inoculation and bacterial burdens quantified.
(§2) II. Methods • A. Animals: Six week-old, specific pathogen free, female CD-1 mice purchased from Charles River Laboratories (Wilmington, Mass.) were used for all studies after acclimation in Cubist animal facility. […] MIC was determined in MHB by standard CLSI microdilution. […] The survival of animals was recorded daily for 7 days. The antibiotic dose calculated to protect 50% of the mice (PD50) was derived based on probit analysis of percentage survival. • E. Mouse Thigh and Lung Infections: Mice were rendered neutropenic by two IP injections of cyclophosphamide 4 days (150 mg/kg) and 1 day (100 mg/kg) before bacterial inoculation. […] Tissue bacterial burdens were quantified by serial dilution and spiral plating of homogenates.

The subject of assay [2] is methicillin-resistant Staphylococcus aureus (MRSA). The assay can be described thus: MIC measured by the method of Example 3. Type of assay: cell-based. The following applies: strain not named, read-out: MIC against methicillin-resistant Staphylococcus aureus (MRSA). The protocol:
(§3) To prepare for MIC testing, individual colonies were isolated by streaking frozen glycerol material containing Staphylococcus or Pseudomonas spp. onto rich, non-selective, tryptic soy agar containing 5% sheep's blood (TSAB), and incubated at 37° C. for 18-24 hrs.
(§4) On the day of testing, primary cultures were started by scraping off 5-10 colonies from the TSAB plates. The material was suspended in ˜5 mL of cation adjusted Mueller Hinton Broth (CAMHB) in 14 mL culture tubes and incubated at 37° C. with aeration (200 rpm) for ˜2 hrs until the OD600 was ≧0.1.
(§5) Inoculum cultures were prepared by standardizing the primary cultures to OD600=0.1 and then adding 20 μL of the adjusted primary culture per 1 mL CAMHB for Pseudomonas and CAMHB plus 4% NaCl for MRSA so that the final inoculum density was ˜10^5 colony forming units per milliliter. Diluted inoculum cultures were used to inoculate 50 μL per well in 96 well broth microdilution assay plates. […]
(§6) Plates were incubated for 18-20 hours at 37° C. with aeration (200 rpm). Following incubation, growth was confirmed visually placing plates over a viewing apparatus (stand with a mirror underneath) and then OD600 was measured using a SpectraMax 340PC384 plate reader (Molecular Devices, Sunnyvale, Calif.). Growth was defined as turbidity that could be detected with the naked eye or achieving minimum OD600 of 0.1. […]

Another assay has as its system Pseudomonas aeruginosa. Description: MIC measured by the method of Example 3. As to conditions: strain not named, read-out: MIC against Pseudomonas aeruginosa. Type of assay: cell-based. As for the experimental part:
as §3, §4, §5, §6

The test system of assay [3] is ceftazidime-resistant Pseudomonas aeruginosa #2545. It counts as in vivo. The following applies: Pa #2545; CD-1 mice, IP inoculum, 2 SC doses at 1 and 6 hrs, 7 day survival. The protocol:
as §1, §2

Assay [4] concerns Pseudomonas aeruginosa #44 (ATCC#27853). The assay can be described thus: Mouse septicemia (systemic infection), PD50. Type of assay: in vivo. The following applies: Pa #44 (ATCC27853); CD-1 mice, IP inoculum, 2 SC doses at 1 and 6 hrs, 7 day survival. As for the experimental part: as §1
(§7) II. Methods • A. Animals: Six week-old, specific pathogen free, female CD-1 mice purchased from Charles River Laboratories (Wilmington, Mass.) were used for all studies after acclimation in Cubist animal facility. All animal procedures were approved by the Cubist Institutional Animal Care and Use Committee. • B. Bacteria and In Vitro Susceptibility Testing: MRSA #712, Pseudomonas aeruginosa #2245 and #2545, and Klebsiella pneumoniae #573 are clinical isolates; Pseudomonas aeruginosa #44 is an ATCC strain (ATCC#27853). MIC was determined in MHB by standard CLSI microdilution. […] The survival of animals was recorded daily for 7 days. The antibiotic dose calculated to protect 50% of the mice (PD50) was derived based on probit analysis of percentage survival. • E. Mouse Thigh and Lung Infections: Mice were rendered neutropenic by two IP injections of cyclophosphamide 4 days (150 mg/kg) and 1 day (100 mg/kg) before bacterial inoculation. […] Tissue bacterial burdens were quantified by serial dilution and spiral plating of homogenates.
III. […] The dose that protected 50% of the mice (PD50) was calculated by probit analysis based on percentage of mice surviving for 7 days post-inoculation. • C. […]

The next assay deals with MRSA #712. Description: Thigh infection in neutropenic mice. It counts as in vivo, Staphylococcus aureus. As to conditions: MRSA #712 thigh infection, neutropenic mice, 2 SC doses at 1 and 6 hrs, 24 h, vs vehicle. As for the experimental part:
as §1, §7

Assay [5] relates to ceftazidime-resistant Pseudomonas aeruginosa #2545. Description: Lung infection in neutropenic mice. It counts as in vivo. As to conditions: Pa #2545 lung infection, neutropenic mice. The protocol:
as §1
(§8) II. Methods • A. Animals: Six week-old, specific pathogen free, female CD-1 mice purchased from Charles River Laboratories (Wilmington, Mass.) were used for all studies after acclimation in Cubist animal facility. All animal procedures were approved by the Cubist Institutional Animal Care and Use Committee. • B. Bacteria and In Vitro Susceptibility Testing: MRSA #712, Pseudomonas aeruginosa #2245 and #2545, and Klebsiella pneumoniae #573 are clinical isolates; Pseudomonas aeruginosa #44 is an ATCC strain (ATCC#27853). MIC was determined in MHB by standard CLSI microdilution. Comparator Antibiotics Used in Animal Studies: Vancomycin hydrochloride USP was purchased from Hospira (Lake Forest, Ill.); ceftazidime hydrate from Sigma; Primaxin (imipenem and cilastatin) from Merck; ceftaroline was synthesized at a CRO. • D. Mouse Septicemia: Mice received lethal inocula of bacteria in 6% hog gastric mucin intraperitoneally (IP), followed by two treatment doses of antibiotics via subcutaneous (SC) administration at 1 and 6 hrs post-inoculation. The survival of animals was recorded daily for 7 days. The antibiotic dose calculated to protect 50% of the mice (PD50) was derived based on probit analysis of percentage survival. • E. Mouse Thigh and Lung Infections: Mice were rendered neutropenic by two IP injections of cyclophosphamide 4 days (150 mg/kg) and 1 day (100 mg/kg) before bacterial inoculation. Thigh or lung infection was induced by an intramuscular injection of 0.2 mL or intranasal inoculation of 0.1 mL inoculum preparation from an overnight bacterial culture into left thigh or nares. Tissues from one group of mice receiving no treatment (No Rx) were harvested at 1 hr for determination of baseline of bacterial burden. The remaining mice received two treatment doses of vehicles or antibiotics given SC at 1 and 6 hrs post-inoculation. Tissues from the treated mice were harvested at ˜24 hrs post-inoculation. Tissue bacterial burdens were quantified by serial dilution and spiral plating of homogenates.

Assay [6] concerns ceftazidime-susceptible Pseudomonas aeruginosa #2245. Description: Lung infection in neutropenic mice. As to conditions: Pa #2245 lung infection, 3-log CFU reduction vs vehicle at 24 h. It counts as in vivo. The protocol:
as §1, §8

Assay [7] has as its system ceftazidime-susceptible Pseudomonas aeruginosa #44 (ATCC#27853). The assay can be described thus: Lung infection in neutropenic mice. It counts as in vivo. As to conditions: Pa #44 lung infection. The protocol:
as §1, §8

Setting [8] is: 2 SC doses at 1 and 6 hrs, 24 h, vs vehicle.
The mark [9] stands for this setting: 3-log CFU reduction vs vehicle at 24 h.

Take `CO/N=C(\C(=O)N[C@@H]1C(=O)N2C(C(=O)[O-])=C(C[n+]3ccc(N)c(NC(=O)Nc4ccc(CCNC(=N)N)cc4)c3)CS[C@H]12)c1nc(N)sc1Cl` [(I)]: the “Septicemia PD50 (± SE)” value in assay [1] was below 1.3 mg/kg; in [3], below 10.4 mg/kg; in assay [4], 5.3 ± 0.7 mg/kg. Further, the MIC (in [2]; in the assay on Pseudomonas aeruginosa) was 1 to 2 µg/mL (≈ 1.35 to 2.69 µM) in each case. Also, in the assay with MRSA #712, the “Thigh (T) ED−2log” value is 68.9 mg/kg and 68.9 (T) mg/kg. In addition, the entries for the “Lung (L) ED−2log” value in assay [5] (setting [8]) and in [7] (setting [8]) were 6.7 (L) mg/kg and 1.8 (L) mg/kg, respectively. In addition, the figures for the “ED−3 log” value in assay [5] (setting [9]), in assay [6] and in assay [7] (setting [9]) were 11.4 mg/kg, 5.2 mg/kg and 4.1 mg/kg, respectively.
